Experimental data taken from US7915291B2, “Hepatitis C virus inhibitors” (Bristol-Myers Squibb Company, priority 2002, dated 2011).
pIC50: −log10 of the molar value. Where two headings read alike, the source gives them in different places.

How the values were obtained:
[1] = molecular target: HCV NS3/4A protease complex, BMS strain (UniProt P27958, C1454S/C1711G, species not given/STRAIN_BMS); experiment: Recombinant HCV NS3/4A protease complex FRET peptide assay (BMS strain); type: biochemical, HCV genotype 1a
Outline: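 Recombinant BMS-strain NS3/4A (His-tagged NS4A with three-lysine tail, E. coli) at 2-3 nM preincubated 1 min with compound, then 2 μM ester-linked NS4A/NS4B-based FRET peptide added. Fluorescence followed in real time ~15 min at 25° C. Percent inhibition from slope of linear fluorescence change versus no-compound control.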

[2] = molecular target: T1, human leukocyte elastase (HLE) (Homo sapiens, UniProt P08246); experiment: Specificity assay, HLE; type: biochemical; details: 2 hr pre-incubation
T1 construct: purchased Sigma
T1 sequence (P08246 30-267): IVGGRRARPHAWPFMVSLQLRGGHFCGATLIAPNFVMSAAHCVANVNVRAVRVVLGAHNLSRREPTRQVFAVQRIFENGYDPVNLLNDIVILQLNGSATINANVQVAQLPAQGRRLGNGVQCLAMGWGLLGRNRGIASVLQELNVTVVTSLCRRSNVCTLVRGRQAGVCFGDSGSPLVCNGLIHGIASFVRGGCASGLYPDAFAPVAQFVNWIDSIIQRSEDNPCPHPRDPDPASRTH
Procedure: (§1) The specificities of compounds of the present invention were determined against a variety of serine proteases: human leukocyte elastase (HLE), porcine pancreatic elastase (PPE) and human pancreatic chymotrypsin and one cysteine protease: human liver cathepsin B. In all cases a 96-well plate format protocol using colorimetric p -nitroaniline (pNA) substrate specific for each enzyme was used as described previously (Patent WO 00/09543) with some modifications to the serine protease assays. All enzymes were purchased from Sigma while the substrates were from Bachem.
(§2) Each assay included a 2 hr enzyme-inhibitor pre-incubation at RT followed by addition of substrate and hydrolysis to ˜30% conversion as measured on a Spectramax Pro microplate reader. Compound concentrations varied from 100 to 0.4 μM depending on their potency. […]
(§3) The percentage of inhibition was calculated using the formula: [1−((UVinh−UVblank)/(UVctl−UVblank))]×100 […]

[3] = molecular target: T2, porcine pancreatic elastase (PPE) (Sus scrofa, UniProt P00772); experiment: Specificity assay, PPE; type: biochemical; details: 2 hr pre-incubation
T2 construct: purchased Sigma
Procedure: as §1, §2, §3

[4] = molecular target: T3, human pancreatic chymotrypsin (Homo sapiens, UniProt P17538); experiment: Specificity assay, chymotrypsin; type: biochemical; details: 2 hr pre-incubation
T3 construct: purchased Sigma
Procedure: as §1, §2, §3

[5] = molecular target: T4, human liver cathepsin B (Homo sapiens, UniProt P07858); experiment: Specificity assay, cathepsin B; type: biochemical; details: 2 hr pre-incubation
T4 construct: purchased Sigma; host or cells: human liver (as named)
Procedure: as §1, §2, §3

T3 sequence (P17538 19-263): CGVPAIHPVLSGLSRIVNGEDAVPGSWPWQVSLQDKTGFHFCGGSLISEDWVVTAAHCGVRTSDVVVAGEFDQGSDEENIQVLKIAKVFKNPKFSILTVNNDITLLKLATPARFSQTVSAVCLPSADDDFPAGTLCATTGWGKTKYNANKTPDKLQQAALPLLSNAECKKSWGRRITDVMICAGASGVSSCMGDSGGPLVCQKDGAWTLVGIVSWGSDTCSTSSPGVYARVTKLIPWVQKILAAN
T2 sequence (P00772 27-266): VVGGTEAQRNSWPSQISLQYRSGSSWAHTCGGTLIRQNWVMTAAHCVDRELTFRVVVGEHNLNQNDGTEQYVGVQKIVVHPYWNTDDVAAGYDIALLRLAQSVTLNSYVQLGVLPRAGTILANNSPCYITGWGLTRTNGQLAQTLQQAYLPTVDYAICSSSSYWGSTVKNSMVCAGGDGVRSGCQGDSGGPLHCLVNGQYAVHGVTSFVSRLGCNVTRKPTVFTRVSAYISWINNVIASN

## C=C[C@@H]1C[C@]1(NC(=O)[C@@H]1C[C@@H](Oc2nc(C3CC3)cc3ccccc23)CN1C(=O)[C@@H](NC(=O)OC(C)(C)C)C(C)(C)C)C(=O)NS(=O)(=O)C1CC1 [Compound 34]
[1]; BMS strain, read-out: IC50 against the NS3/4A BMS strain in the enzyme assay
  pIC50: 7.64
[1]; NS3/4A BMS strain, read-out: IC50 range
  pIC50: > 7.00
[2]
  pIC50: < 4.00
[3]
  pIC50: < 3.70
[4]
  pIC50: < 3.70
[5]
  pIC50: < 3.70
